Marks after values point to notes of the source that are not given here.
Key:
[1] = Mn(III)/Mn(II) couple; aqueous solution (pH 7.8, 0.1 M NaCl); Ref 4; cited from earlier work
[2] = Cyclic voltammetry, metal-centered redox potential; format: physicochemical; details: Mn(III)/Mn(II) couple; 90/10 (v/v) methanol/aqueous solution, pH* 7.9
Protocol: Manganese(III) Salen. The compound was prepared by the published procedure (Boucher, J. lnorg. Nucl. Chem. 36:531 (1974)). The uv/vis in water: ε235=3.70×10^4 cm^−1 M^−1, ε279=1.70×10^4 cm^−1 M^−1, ε397=4.60×10^3 cm^−M^−1. The elemental analysis: Anal. Calcd for Mn^IIIsalenCl, C16H14N2O2MnCl: C, 53.88; H, 3.96; N; 7.85. Found: C, 54.02; H, 4.06; N, 7.85. […] Based on the E1/2 of Mn^IIITM-2-PyP^5+, ferrocenemethanol and of K3Fe(CN)6 in water and methanol, the redox potential of Mn^III salen^+ in water was calculated to be E1/2=−0.13 V vs NHE.
Electrochemistry of the Manganese(III) Biliverdin Dimethylester. Measurements were made using a CH Instruments model 600 voltammetric analyzer as described previously(Batinic-Haberle et al, Inorg. Chem. 38:4011 (1999)). A three-electrode system in a small volume (0.5-3.0 mL), with a 3 mm diameter glassy carbon button working electrode (Bioanalytical Systems), Ag/AgCl reference electrode (3 M NaCl, Bioanalytical Systems), and a Pt wire (0.5 mm) as auxiliary electrode, were used. The cyclic votammetry was performed on 0.5 mM (per manganese) methanol/aqueous (90/10, v/v) solutions of the compounds investigated. The ionic strength was kept at 0.10 M (NaCl), and 0.05 M tris buffer was used for pH^* adjustment. For calibration purposes, compounds of different hydrophilicities, […], (Kolthof et al, J. Phys. Chem. 39:945 (1935)) ferrocenemethanol and Mn^IIITM-2-PyP^5+ were studied in both aqueous and methanol/aqueous (90/10, v/v) solutions (I=0.10 M NaCl, 0.05 M tris buffer, pH^* 7.9). In all cases the measured E1/2 was 170 mV more positive in methanolic than in aqueous solution and this value was used to predict the redox potential in aqueous solution from measurement in methanol/aqueous solution.

[3] = Ref 4, cited from earlier work

manganese(III) tetrakis(N-methylpyridinium-2-yl)porphyrin [Mn^III/IITM-2-PyP^5−4−]
E1/2, V vs NHE [1]: −0.22 V vs NHE | E1/2, V vs Ag/AgCl [2]: −0.12 V vs Ag/AgCl | kcat, O2^− dismutation ([3]; 25° C.): 6.0 × 10^7a M^−1 s^−1 | SOD specific activity [3]: 8.500^a U/mg

Reference: US20040039211A1, “Tetrapyrroles” (DUKE UNIVERSITY AND NATIONAL JEWISH MEDICAL AND RESEARCH …, priority 2000, published 2004)
